Values after ≈ are worked out from the molar mass of the structure shown. Residues, ends and D or L forms follow the SMILES beside them.
Key:
S. typhimurium CVCC533 = assay type: cell-based, Salmonella typhimurium; details: repeated three times
Description: (§1) The minimum inhibitory concentration (MIC) and minimum bactericidal concentration (MBC) of peptides were determined by the microtiter broth dilution method according to Clinical and Laboratory Standards Institute (CLSI) guidelines. […] PBS was used as the negative control. […] The MBC value was calculated as the lowest concentration of peptides resulting in a 99.9% reduction of the original inoculum. All experiments were repeated three times.

[1] = Detection of R7 in mouse blood after injection (RP-HPLC); assay type: in vivo; details: R7 10 ~ 50 mg/kg intraperitoneal, intravenous or subcutaneous, blood at 5, 30, 60 and 120 min
Description: To further study the cleavage efficiency of chimeric peptide R7, the mice were injected with R7 (10 ~ 50 mg/kg) by different routes, including intraperitoneal, intravenous or subcutaneous ones, respectively; blood was taken from the orbits at different time (5, 30, 60, and 120 min, respectively) and detected by RP-HPLC. […] Here are several conditions that may negatively impact RP-HPLC detection results: (i) R7 may bind to other proteins such as plasma protein and form aggregates; (ii) the concentration of R7 after cleavage was too low to detect target peptide by RP-HPLC; (iii) R7 may be degraded by some cellular proteases present in serum in vivo[45]. Furthermore, we used more sensitive liquid chromatograph mass spectrometer (LC-MS) to detect R7 and its possible degradation products in mice. […] We further used MALDI-TOF MS with higher resolution to analyze R7 degradation products in blood. As shown in Supplementary Table 5, R7 was cleaved into two dual-function fragments in the serum principally, including one from position 1 to 15 that can target LPS and the other mainly from position 18 to 35 that has antibacterial activity. […] In addtion, in vivo stability of peptides in blood has been well modeled by ex vivo stability in serum. […] In fact, several strategies have been proposed to improve the stability of AMPs. […]

mouse red blood cells = assay: Hemolytic activity; assay type: cell-based
Description: Blood was collected from the eyeballs of specific pathogen-free (SPF) ICR female mice (6-week-old) with an anticoagulant tube and centrifuged for 10 min (4 °C, 1500 rpm). After washing twice with 0.9% physiological saline, red blood cells were diluted to 8% suspension and added into the Eppendorf tube (100 μL); 2-fold peptide solutions dissolved in 0.9% physiological saline (100 μL) were then added into the tube, incubated at 37 °C for 1 h, and centrifugated at 4 °C for 5 min. The supernatant was pipetted into a 96-well plate and the UV absorbance was measured at 540 nm using a microplate reader. 0.1% Triton X-100 and physiological saline were used as positive and negative control, respectively. The hemolysis rate is calculated as follows: Hemolysis (%) = [(Abspeptide-Abssaline) / (Abs0.1% Triton X-100- Abssaline)] × 100[13].

in vitro = in vitro ADME
MDR E. coli CVCC195 [2] = assay: Efficacy of different doses of R7 in mice challenged with MDR E. coli (survival); assay type: in vivo, mouse; design: key: 1 represents a mouse death; 0 represents no death; details: Supplementary Fig. 4 source data, MDR E. coli challenge
Description: Supplementary Figure 4. Eﬀicacy of different doses of cleavable chimeric peptide R7 in the mice
challenged with MDR E. coli. Mice were intraperitoneally injected with 3.5, 7 or 14 μmol/kg R7 at 0
h (five mice/group), followed by injection with MDR E. coli CVCC195 (0.5×10^9 CFU/mouse) at 6 h.
PBS was used as control. Survival was recorded for 7 d.

MDR E. coli CVCC195 [3] = assay: Serum cytokines (TNF-α, IL-6, IL-1β, IL-10; ELISA) in E. coli-challenged mice; assay type: in vivo, mouse; design: unit not given beside the values; details: Fig. 5c-f source data, peptide + E. coli challenged mice, mean
Description: (§2) After E. coli or LPS challenge, the mice were sacrificed at 12 h and 24 h, respectively, and the sera were collected to detect inflammatory cytokines (such as tumor necrosis factor-α (TNF-α), interleukin-6 (IL-6), interleukin-1β (IL-1β), and interleukin-10 (IL-10)) using the enzyme linked immunosorbent assay (ELISA) kits. To evaluate the specific activity of intestinal alkaline phosphatase (IAP), a 2 cm segment of duodenum was rapidly intercepted from the mice and homogenized; the IAP levels in the supernatant were detected by ELISA. In addition, the lungs were collected from the mice infected by E. coli after 12 and 24 h, respectively and were homogenized in sterile PBS for the bacterial counts assay.

[4] = test system: Staphylococcus aureus ATCC43300; assay type: cell-based; details: repeated three times
Description: as §1

Escherichia coli CVCC195 = assay type: cell-based; details: repeated three times
Description: as §1

MDR E. coli CVCC195 [5] = assay: Mouse survival, preventive treatment before MDR E. coli challenge; assay type: in vivo; details: 7 μmol/kg i.p. at 0 h, MDR E. coli CVCC195 0.5 × 10^9 CFU/mouse i.p. at 6 h; five mice/group
Description: A sepsis mouse model established in our laboratory was used to evaluate the prevention effect of peptides. […] The survival rate of mice was recorded for 7 days. The mice injected with saline were used as negative control.

LPS = assay: Intestinal alkaline phosphatase (IAP) activity in duodenum, LPS-challenged mice; assay type: in vivo, mouse; design: IAP levels in mice: unit not given beside the values; details: for IAP levels in mice: Fig. 7f source data, peptide + LPS, mean
Description: as §2

[6] = lowest concentration giving 99.9% reduction of the inoculum
[7] = microtiter broth dilution, 10^5 CFU/mL, 37 °C, 16 ~ 18 h

SMILES: CSCC[C@H](NC(=O)[C@H](CCCNC(=N)N)NC(=O)[C@H](Cc1c[nH]c2ccccc12)NC(=O)[C@H](C)NC(=O)[C@H](Cc1c[nH]c2ccccc12)NC(=O)[C@H](CCCNC(=N)N)NC(=O)[C@H](Cc1c[nH]c2ccccc12)NC(=O)[C@H](C)NC(=O)[C@H](CCCCN)NC(=O)[C@H](Cc1ccccc1)NC(=O)[C@H](CCCNC(=N)N)NC(=O)[C@H](CCCNC(=N)N)NC(=O)[C@H](CCCCN)NC(=O)[C@H](CCCNC(=N)N)NC(=O)[C@H](CCCCN)NC(=O)[C@H](Cc1ccccc1)NC(=O)[C@H](Cc1ccccc1)NC(=O)[C@H](CO)NC(=O)[C@H](C)NC(=O)[C@H](CCCNC(=N)N)NC(=O)[C@@H](NC(=O)[C@H](CCCCN)NC(=O)[C@H](Cc1c[nH]c2ccccc12)NC(=O)[C@H](CCCNC(=N)N)NC(=O)CNC(=O)[C@H](CCC(N)=O)NC(=O)[C@@H](NC(=O)[C@@H](N)CCCNC(=N)N)C(C)C)C(C)C)C(=O)N[C@@H](CCCCN)C(=O)N[C@@H](CCCCN)C(=O)N[C@@H](CC(C)C)C(=O)N[C@@H](C)C(=O)N[C@@H](C)C(=O)N1CCC[C@H]1C(=O)N[C@@H](CO)C(=O)O [R7] (H-RVQGRWKVRASFFKRKRRFKAWRWAWRMKKLAAPS-OH)
- MBC (S. typhimurium CVCC533; [6]): 2.26 µM (≈ 10.1 µg/mL)
- MIC (S. typhimurium CVCC533; [7]): 1.13 µM (≈ 5.06 µg/mL)
- target peak in mouse blood [1]: not detected
- Hemolysis (mouse red blood cells; concentration 1 μg/ml (as headed), 37 °C, 1 h, absorbance 540 nm, 0.1% Triton X-100 = 100, mean, n = 3): -0.4331%
- Hemolysis (mouse red blood cells; concentration 2 μg/ml (as headed), 37 °C, 1 h, absorbance 540 nm, mean, n = 3): -0.2475%
- Hemolysis (mouse red blood cells; concentration 4 μg/ml (as headed), 37 °C, 1 h, absorbance 540 nm, mean, n = 3): -0.2475%
- Hemolysis (mouse red blood cells; concentration 8 μg/ml (as headed), 37 °C, 1 h, absorbance 540 nm, mean, n = 3): -0.1031%
- Hemolysis (mouse red blood cells; concentration 16 μg/ml (as headed), 37 °C, 1 h, absorbance 540 nm, mean, n = 3): 0.495%
- Hemolysis (mouse red blood cells; concentration 32 μg/ml (as headed), 37 °C, 1 h, absorbance 540 nm, mean, n = 3): 2.846%
- Hemolysis (mouse red blood cells; concentration 64 μg/ml (as headed), 37 °C, 1 h, absorbance 540 nm, mean, n = 3): 6.991%
- Hemolysis (mouse red blood cells; concentration 128 μg/ml (as headed), 37 °C, 1 h, absorbance 540 nm, mean, n = 3): 10.9301%
- Hemolysis (mouse red blood cells; low concentration (0 ~ 32 μM)): no hemolysis
- degradation in human serum (in vitro; RP-HPLC (Supplementary Fig. 2)): almost identical to those in mouse serum
- remaining at 0.5 h, 0.5 mM (in vitro; Supplementary Fig. 2b source data, human serum, 0.5 h, RP-HPLC, mean, read-out: remaining rate in human serum): 58.6%
- remaining at 1 h, 0.5 mM (in vitro; Supplementary Fig. 2b source data, human serum, 1 h, RP-HPLC, mean, read-out: remaining rate in human serum): 51.9%
- remaining at 2 h, 0.5 mM (in vitro; Supplementary Fig. 2b source data, human serum, 2 h, RP-HPLC, mean, read-out: remaining rate in human serum): 45.6%
- remaining at 4 h, 0.5 mM (in vitro; Supplementary Fig. 2b source data, human serum, 4 h, RP-HPLC, mean, read-out: remaining rate in human serum): 23%
- efficacy of different doses, survival, event (MDR E. coli CVCC195 [2]; 3.5 μmol/kg R7, day 1, one cell per mouse): 1
- efficacy of different doses, survival, event (MDR E. coli CVCC195 [2]; 3.5 μmol/kg R7, day 7): 0
- efficacy of different doses, survival, event (MDR E. coli CVCC195 [2]; 7 μmol/kg R7, day 1): 0
- efficacy of different doses, survival, event (MDR E. coli CVCC195 [2]; 7 μmol/kg R7, day 2): 0
- efficacy of different doses, survival, event (MDR E. coli CVCC195 [2]; 7 μmol/kg R7, day 3): 0
- efficacy of different doses, survival, event (MDR E. coli CVCC195 [2]; 7 μmol/kg R7, day 4): 0
- efficacy of different doses, survival, event (MDR E. coli CVCC195 [2]; 7 μmol/kg R7, day 7): 0
- efficacy of different doses, survival, event (MDR E. coli CVCC195 [2]; 14 μmol/kg R7, day 1): 0
- efficacy of different doses, survival, event (MDR E. coli CVCC195 [2]; 14 μmol/kg R7, day 2): 0
- efficacy of different doses, survival, event (MDR E. coli CVCC195 [2]; 14 μmol/kg R7, day 3): 0
- efficacy of different doses, survival, event (MDR E. coli CVCC195 [2]; 14 μmol/kg R7, day 5): 0
- efficacy of different doses, survival, event (MDR E. coli CVCC195 [2]; 14 μmol/kg R7, day 7): 0
- TNFα (MDR E. coli CVCC195 [3]; 12 h): 51.956
- TNFα (MDR E. coli CVCC195 [3]; 24 h): 49.098
- MBC [4, 6]: 2.26 µM (≈ 10.1 µg/mL)
- MIC [4, 7]: 2.26 µM (≈ 10.1 µg/mL)
- MBC (Escherichia coli CVCC195; [6]): 1.13 µM (≈ 5.06 µg/mL)
- MIC (Escherichia coli CVCC195; [7]): 1.13 µM (≈ 5.06 µg/mL)
- mouse survival at 7 days (MDR E. coli CVCC195 [5]): 100%
- effect on IAP activity compared to the LPS group (LPS; 12 h after LPS challenge): significantly up-regulated
- effect on IAP activity compared to the LPS group (LPS; 24 h after LPS challenge): no significant changes
- IAP levels in mice (LPS; 12 h): 1301.32
- IAP levels in mice (LPS; 24 h): 927.606

— PMC10654507, “A cleavable chimeric peptide with targeting and killing domains enhances LPS neutralization and antibacterial properties against multi-drug resistant E. coli” (Communications Biology, 2023)
